From paper PMC6151660 (Molecules : A Journal of Synthetic Chemistry and Natural …, 2017)
pIC50: −log10 of the molar value. Values after ≈ are worked out from the molar mass of the structure shown. Like-named read-outs stand apart in the source and are kept apart here.

Columns and labels:
[1] = system: Mycobacterium tuberculosis H37Rv; assay: microbe, parasite or virus in culture; format: cell-based; conditions: 120 h
[2] = Chinese hamster ovary cell cytotoxicity MTT assay; conditions: CHO cells
Method: Cytotoxicity was evaluated on CHO cells utilizing a standard 3-[4,5-dimethylthiazol-2-yl]-2,5-diphenyl tetrazolium bromide (MTT) assay. The MTT is a yellow tetrazolium salt that is reduced to purple formazan in the presence of living cells. This reduction reaction was used to measure growth and chemosensitivity. The test samples were tested in triplicate on one occasion. Cells were seeded in microtiter plates at a density of 10^5 cells/mL and incubated for 24 h prior to exposure. The test samples were prepared to a 20 mg/mL stock solution in 10% methanol or 10% DMSO and were tested as a suspension if not properly dissolved. Test compounds were stored at −20 °C until use, and administered in volumes of 100 µL to the plated cells. Emetine was used as the reference drug in all experiments. […] Plates were developed after 44 h of exposure to the drug by the addition of a solution of MTT. After four hours, further incubation at 37 °C the supernatant was removed from the cells via suction and DMSO was added to each well to dissolve the reduced dye crystals. […] The amount of formazan produced in wells containing untreated cells only and growth medium only represent 100% survival and 0% survival respectively, and the amount in each treatment well was converted to a survival percentage relative to these two extremes. The IC50 values were obtained from full dose-response curves, using a non-linear dose-response curve fitting analysis via GraphPad Prism v.4 software.

SH-SY5Y cells [3] = assay: MPP+-induced cytotoxicity in SH-SY5Y cells (neuroprotection); conditions: 1000 μM MPP+ for 48 h; for cell survival restored after MPP+ exposure: 1 µM compound, untreated control 100%
[4] = system: M. tuberculosis H37Rv:pCHERRY3; assay: microbe, parasite or virus in culture; format: cell-based; conditions: Mycobacterium tuberculosis
electric eel AChE = system: electric eel AChE; design: method as in Joubert et al., 2017 [23]; conditions: ref Joubert et al., 2017 [23]; cited from earlier work
[5] = SH-SY5Y cytotoxicity MTT assay; format: cell-based, human; conditions: human, SH-SY5Y neuroblastoma cells, MTT, read-out: CC 50% SH-SY5Y (range where 50% cell toxicity will be observed)
Method: (§1) The human neuroblastoma cell line SH-SY5Y was generously donated by our collaborator at the Division of Molecular Biology and Human Biology, Stellenbosch University, Tygerberg, Cape Town. Cells were cultured in monolayer using Dulbecco Modified Eagles Medium (DMEM, Gibco, Life Technologies Ltd. Carlsbad, CA, USA) supplemented with 10% fetal bovine serum (FBS, Gibco, Life Technologies Ltd.) and 1% 100 U/mL penicillin and 100 μg/mL streptomycin (Lonza Group Ltd., Basel, Switzerland). Cells were grown at 37 °C, in a humidified atmosphere at 5% CO2. Media were replaced every two to three days and cells were sub-cultured by splitting with trypsin (Lonza Group Ltd.).
(§2) The standard MTT assay which measures cell metabolic activity was used to determine cytotoxicity of CM14, CM15 and CM9 as described by Mosmann. Briefly, SH-SY5Y cells were plated in flat bottom 96 well plates in growth medium as stated in Section 3.7.1 at a density of 7500 cells/well. Cells were allowed to adhere to the plate surface for 24 h and used media were replaced with fresh media containing test compounds at 10 µM, 50 µM and 100 µM. Vehicle control cells were treated with DMSO (solvent for dissolving test compounds) at a concentration similar to the amount contained in the highest concentration of test compounds. After 48 h, 10 µL of MTT solution (5 mg/mL) was added to each well and incubated for 4 h and the purple formazan formed was solubilized with 100 µL DMSO and plates were read spectrophotometrically to determine absorbance at 570 nm using a BMG Labtech POLARStar Omega multimodal plate reader.

SH-SY5Y cells [6] = assay: SH-SY5Y cytotoxicity MTT assay; format: cell-based, human; conditions: 48 h
Method: as §1, §2

[7] = system: M. tuberculosis H37RvMA pMSP12:GFP; assay: microbe, parasite or virus in culture; format: cell-based; conditions: Mycobacterium tuberculosis
BSA = molecular target: T1, BSA (Bos taurus, UniProt P02769); assay: Bovine serum albumin binding assay (fluorescence quenching); conditions: BSA 1.00 × 10^−5 mol L^−1, 22 °C, ex 295 nm
T1 construct: purchased Sigma Aldrich (Kempton Park, South Africa)
Source text: The mechanism of the fluorescent quenching of CM14 and CM15 to BSA is described using the Stern-Volmer equation:F0/F = 1 + ksv[Q] = 1 + kq τ0[Q] where F0 and F are the fluorescence intensities before and after the addition of the quencher, respectively; ksv is the dynamic quenching constant; kq is the quenching rate constant; [Q] is the concentration of quencher; τ0 is the average lifetime of the molecule without quencher and its value is considered to be 10^−8 s. The plots show a good linear relationship within the investigated concentrations of CM14 and CM15.
The interaction between coumarin derivatives (CM14 and CM15) and BSA were measured by fluorescence spectroscopy. BSA (≥98%) was obtained from Sigma Aldrich (Kempton Park, South Africa) and dissolved in a Tris–HCl (0.10 mol L^−1, pH = 7.4) buffer to form the BSA solution with a concentration of 1.00 × 10^−5 mol L^−1. A Tris–HCl buffer (0.10 mol L^−1, pH = 7.4) containing 0.10 mol L^−1 NaCl was selected to keep the pH value constant and to maintain the ionic strength of the solution. CM14 and CM15 stock solution (1.00 × 10^−3 mol L^−1) was prepared in MeOH. […] Fluorescence spectra were recorded on a Synergy Mx fluorescence plate reader (BioTek, Winooski, VT, USA). […] Fluorescence spectra were measured in the range of 315–500 nm at the excitation wavelength of 295 nm. […]

[8] = molecular target: equine butyrylcholinesterase (BuChE); design: method as in Joubert et al., 2017 [23]; conditions: ref Joubert et al., 2017 [23]; cited from earlier work
[9] = 1 µM compound, day 5, read-out: % M. tuberculosis Growth, Day 5
[10] = 50 µM compound, day 5, read-out: % M. tuberculosis Growth, Day 5
[11] = 100 µM compound, day 5, read-out: % M. tuberculosis Growth, Day 5
[12] = read-out: % M. tuberculosis Growth, Day 5

T1 sequence (P02769 25-607): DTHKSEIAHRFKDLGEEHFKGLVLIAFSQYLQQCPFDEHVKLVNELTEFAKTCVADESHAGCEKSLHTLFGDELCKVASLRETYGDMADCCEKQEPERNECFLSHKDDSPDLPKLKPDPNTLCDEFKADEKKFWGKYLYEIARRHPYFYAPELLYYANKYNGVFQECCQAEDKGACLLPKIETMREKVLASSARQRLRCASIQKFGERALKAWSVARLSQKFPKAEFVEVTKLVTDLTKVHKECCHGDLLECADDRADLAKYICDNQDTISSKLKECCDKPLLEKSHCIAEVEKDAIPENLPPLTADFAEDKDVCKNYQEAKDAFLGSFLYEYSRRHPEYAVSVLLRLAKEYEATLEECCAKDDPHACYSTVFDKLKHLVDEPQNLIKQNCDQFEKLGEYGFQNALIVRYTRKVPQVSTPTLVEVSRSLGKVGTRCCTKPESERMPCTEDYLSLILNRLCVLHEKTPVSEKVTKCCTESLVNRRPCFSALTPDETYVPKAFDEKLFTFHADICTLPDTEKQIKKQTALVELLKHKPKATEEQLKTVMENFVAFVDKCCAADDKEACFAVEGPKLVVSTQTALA

| SMILES | activity at 1 µM [1, 9] [%] | activity at 50 µM [1, 10] [%] | activity at 100 µM [1, 11] [%] | pIC50 (electric eel AChE) | pIC50 [8] | further results |
| --- | --- | --- | --- | --- | --- | --- |
| Cc1c(Cl)c(=O)oc2cc(OCc3ccc(Br)cc3)ccc12 [CM3] | 97.8 | 96.1 | 92.9 | – | – | – |
| O=c1ccc2ccc(OCc3ccc(Br)cc3)cc2o1 [CM1] | 96.3 | 79.8 | 63.6 | – | – | – |
| Cc1c(Cl)c(=O)oc2cc(OCCN3CCN(Cc4ccc(Br)cc4)CC3)ccc12 [CM13] | 97 | 42.5 | 32.1 | – | – | – |
| Cc1c(C#N)c(=O)oc2cc(OCc3ccccc3)ccc12 [CM19] | 98.3 | 66.9 | 55.4 | – | – | – |
| Cc1c(C#N)c(=O)oc2cc(OCc3ccc(Br)cc3)ccc12 [CM4] | 95.3 | 44.6 | 33.5 | – | – | – |
| O=c1cc(C(F)(F)F)c2ccc(OCCN3CCN(Cc4ccc(Br)cc4)CC3)cc2o1 [CM15] | 107 | 6.68 | 4.88 | < 4.00 | < 4.00 | CC50 at 44 h [2]: 26.3 µM; cell survival restored after MPP+ exposure (SH-SY5Y cells [3]): 81.05 ± 6.83%; MIC90 [4]: 43.8 µM (≈ 22.4 µg/mL); MIC99 [4]: 57.2 µM (≈ 29.2 µg/mL); CC50 at 48 h [5]: 10 to 50 µM; effect on viability of SH-SY5Y cells (SH-SY5Y cells [6]; 10 µM): did not significantly affect; effect on viability of SH-SY5Y cells (SH-SY5Y cells [6]; 50 µM and 100 µM): significantly (p < 0.001) affected; MIC90 [7]: 3.2 µM (≈ 1.64 µg/mL); MIC99 [7]: 8.31 µM (≈ 4.25 µg/mL); ksv (dynamic quenching constant) (BSA): 488000 mol/L |
| O=c1ccc2ccc(OCc3ccccc3)cc2o1 [CM16] | – | – | – | – | – | activity at 1 µM [1, 12]: 97.5%; activity at 50 µM [1, 12]: 72.7%; activity at 100 µM [1, 12]: 50.7% |
| Cc1c(C#N)c(=O)oc2cc(OCCN3CCC(Cc4ccccc4)CC3)ccc12 [CM9] | 92.8 | 7.75 | 6.19 | 5.04 | 5.23 | cell survival restored after MPP+ exposure (SH-SY5Y cells [3]): 81.86 ± 3.72%; maximal cytoprotection (cell viability) after MPP+ exposure (SH-SY5Y cells [3]; 10 µM compound): 92.2 ± 4.18%; CC50 at 48 h [5]: 10 to 50 µM; effect on viability of SH-SY5Y cells (SH-SY5Y cells [6]; 10 µM): did not significantly affect; effect on viability of SH-SY5Y cells (SH-SY5Y cells [6]; 50 µM and 100 µM): significantly (p < 0.001) affected |
| O=c1ccc2ccc(OCCN3CCC(Cc4ccccc4)CC3)cc2o1 [CM6] | 98.2 | 52.7 | 15.4 | – | – | – |
| Cc1c(C#N)c(=O)oc2cc(OCCN3CCN(Cc4ccc(Br)cc4)CC3)ccc12 [CM14] | 99.5 | 4.4 | 4.44 | 4.41 | 4.88 | CC50 at 44 h [2]: 41.2 µM; cell survival restored after MPP+ exposure (SH-SY5Y cells [3]): 101.2 ± 6.00%; MIC90 [4]: 45.2 µM (≈ 21.8 µg/mL); MIC99 [4]: 54.5 µM (≈ 26.3 µg/mL); CC50 at 48 h [5]: 50 to 100 µM; effect on viability of SH-SY5Y cells (SH-SY5Y cells [6]; 10 µM): did not significantly affect; effect on viability of SH-SY5Y cells (SH-SY5Y cells [6]; 50 µM and 100 µM): significantly (p < 0.001) affected; MIC90 [7]: 16.7 µM (≈ 8.06 µg/mL); MIC99 [7]: 28 µM (≈ 13.5 µg/mL); ksv (dynamic quenching constant) (BSA): 380000 mol/L |
| Cc1cc(=O)oc2cc(OCCN3CCN(Cc4ccc(Br)cc4)CC3)ccc12 [CM12] | 95.2 | 4.35 | 3.93 | 4.89 | 5.01 | CC50 at 44 h [2]: 15.5 µM; MIC90 [4]: 40.9 µM (≈ 18.7 µg/mL); MIC99 [4]: 50.4 µM (≈ 23.1 µg/mL); MIC90 [7]: 14 µM (≈ 6.4 µg/mL); MIC99 [7]: 29.7 µM (≈ 13.6 µg/mL) |
